Test results reported in patent publication US20150141411A1, “SUBSTITUTED 3,4-DIHYDRO-2H-PYRIDO[1,2-A]PYRAZINE-1,6-DIONE DERIVATIVES USEFUL FOR THE TREATMENT OF (INTER ALIA) ALZHEIMER'S DISEASE” (Janssen Pharmaceuticals, Inc., priority 2012, published 2015).

Assays:
γ-secretase [1] = target: T1, γ-secretase (Homo sapiens, UniProt P49768); experiment: Screening for γ-secretase-modulating activity: Aβ42 in supernatant of SKNBE2 cells carrying hAPP 695 wild type (Alphalisa); format: cell-based; conditions: SKNBE2 human neuroblastoma cells carrying hAPP 695 wild type, overnight incubation, Aβ42 in cell supernatant
T1 construct: endogenous in cells; host or cells: SKNBE2 human neuroblastoma cells (carrying hAPP 695 wild type as substrate)
Description: (§1) Screening was carried out using SKNBE2 human neuroblastoma cells carrying the hAPP 695—wild type, grown in Dulbecco's Modified Eagle's Medium/Nutrient mixture F-12 (DMEM/NUT-mix F-12) (HAM) provided by Invitrogen (cat no. 10371-029) containing 5% Serum/Fe supplemented with 1% non-essential amino acids, 1-glutamine 2 mM, Hepes 15 mM, penicillin 50 U/ml (units/ml) en streptomycin 50 μg/ml. Cells were grown to near confluency.
(§2) The screening was performed using a modification of the assay as described in Citron et al (1997) Nature Medicine 3: 67. Briefly, cells were plated in a 384-well plate at 10^4 cells/well in Ultraculture (Lonza, BE12-725F) supplemented with 1% glutamine (Invitrogen, 25030-024), 1% non-essential amino acid (NEAA), penicillin 50 U/ml en streptomycin 50 μg/ml in the presence of test compound at different test concentrations. The cell/compound mixture was incubated overnight at 37° C., 5% CO2. The next day the media were assayed by two sandwich immuno-assays, for Aβ42 and Aβ total.
(§3) Aβtotal and Aβ42 concentrations were quantified in the cell supernatant using the Aphalisa technology (Perkin Elmer). Alphalisa is a sandwich assay using biotinylated antibody attached to streptavidin coated donorbeads and antibody conjugated to acceptor beads. In the presence of antigen, the beads come into close proximity. The excitation of the donor beads provokes the release of singlet oxygen molecules that trigger a cascade of energy transfer in the acceptor beads, resulting in light emission. To quantify the amount of Aβ42 in the cell supernatant, monoclonal antibody specific to the C-terminus of Aβ42 (JRF/cAβ42/26) was coupled to the receptor beads and biotinylated antibody specific to the N-terminus of Aβ (JRF/AβN/25) was used to react with the donor beads. To quantify the amount of Aβtotal in the cell supernatant, monoclonal antibody specific to the N-terminus of Aβ (JRF/AβN/25) was coupled to the receptor beads and biotinylated antibody specific to the mid region of Aβ (biotinylated 4G8) was used to react with the donor beads.
(§4) To obtain the values reported in Table 3, the data are calculated as percentage of the maximum amount of amyloid Beta 42 measured in the absence of the test compound. The sigmoidal dose response curves were analyzed using non-linear regression analysis with percentage of the control plotted against the log concentration of the compound. A 4-parameter equation was used to determine the IC50.

γ-secretase [2] = target: T1, γ-secretase; experiment: Screening for γ-secretase-modulating activity: Aβtotal in supernatant of SKNBE2 cells carrying hAPP 695 wild type (Alphalisa); format: cell-based; conditions: SKNBE2 human neuroblastoma cells carrying hAPP 695 wild type, overnight incubation, Aβtotal in cell supernatant
Description: as §1, §2, §3, §4

SMILES	IC50 (γ-secretase [1]) [nM]	IC50 (γ-secretase [2]) [nM]
Cc1cn(-c2ccc3n(c2=O)C[C@@H](C)N(C(C)c2cc(Cl)cc(Cl)c2)C3=O)cn1 (single isomer, unassigned) [compound 210]	260	> 10000
CCn1cc(C(C)N2C(=O)c3ccc(-n4cnc(C)c4)c(=O)n3CC2C)c2cc(C(F)(F)F)ccc21 (single isomer, unassigned) [compound 217]	3	480
CCn1cc(C(C)N2C(=O)c3ccc(-n4cnc(C)c4)c(=O)n3CC2C)c2cc(Cl)cc(F)c21 (single isomer, unassigned) [compound 220]	170	6030
Cc1cn(-c2ccc3n(c2=O)CC(C)N(C(C)c2cn(C)c4c(F)cc(Cl)cc24)C3=O)cn1 (single isomer, unassigned) [compound 224]	10	1860
CCn1cc(C(C)N2C(=O)c3ccc(-n4cnc(C)c4)c(=O)n3C[C@H]2C)c2ccc(C(F)(F)F)cc21 (single isomer, unassigned) [compound 235]	10	6000
CCn1cc(C(C)N2C(=O)c3ccc(-n4cnc(C)c4)c(=O)n3CC2C)c2cc(Cl)ccc21 (single isomer, unassigned) [compound 243]	10	2000
CCn1cc(C(C)N2C(=O)c3ccc(-n4cnc(C)c4)c(=O)n3C[C@H]2C)c2ccc(C(F)(F)F)cc21 (single isomer, unassigned) [compound 244]	370	> 10000
CCn1cc(C(C)N2C(=O)c3ccc(-n4cnc(C)c4)c(=O)n3CC2C)c2cc(Cl)ccc21 (single isomer, unassigned) [compound 249]	490	8000
COc1cc2c(cc1Cl)c(C(C)N1C(=O)c3ccc(-n4cnc(C)c4)c(=O)n3C[C@H]1C)cn2C (single isomer, unassigned) [compound 256]	40	4000
Cc1cn(-c2ccc3n(c2=O)CC(C)N(Cc2ccc(C)c(N4CCCCC4)c2)C3=O)cn1 (stereo not drawn) [compound 4]	80	> 10000
Cc1cn(-c2ccc3n(c2=O)CCN(CCCC(C)(C)C)C3=O)cn1 [compound 15]	2290	> 10000
CCCc1nccn1-c1ccc2n(c1=O)CCN(CCC1CC1)C2=O [compound 16]	> 10000	> 10000
Cc1cn(-c2ccc3n(c2=O)C[C@@H](C2CC2)N(Cc2ccc(Cl)c(Cl)c2)C3=O)cn1 [compound 33]	1660	> 10000
Cc1cn(-c2ccc3n(c2=O)CCN(Cc2cccc(Cl)c2F)C3=O)cn1 [compound 39]	950	> 10000
COC[C@@H]1Cn2c(ccc(-n3cnc(C)c3)c2=O)C(=O)N1Cc1cc(C(F)(F)F)cc(C(F)(F)F)c1 [compound 47]	260	> 10000
Cc1cn(-c2ccc3n(c2=O)C[C@@H](CN(C)C)N(Cc2cc(C(F)(F)F)cc(C(F)(F)F)c2)C3=O)cn1 [compound 48]	580	> 10000

SMILES	IC50 (γ-secretase [1]) [nM]	IC50 (γ-secretase [2]) [nM]
Cc1cn(-c2ccc3n(c2=O)CCN(C(c2cc(C(F)(F)F)cc(C(F)(F)F)c2)C2CCOCC2)C3=O)cn1 (stereo not drawn) [compound 51]	500	> 10000
COCC(c1cc(C(F)(F)F)cc(C(F)(F)F)c1)N1CCn2c(ccc(-n3cnc(C)c3)c2=O)C1=O (stereo not drawn) [compound 54]	1260	> 10000
Cc1cc(CN2CCn3c(ccc(-n4cnc(C)c4)c3=O)C2=O)cc(C(F)(F)F)c1 [compound 60]	660	> 10000
Cc1cn(-c2ccc3n(c2=O)CCN(Cc2cccc(C(F)(F)F)c2Cl)C3=O)cn1 [compound 64]	690	> 10000
COc1cccc(CN2CCn3c(ccc(-n4cnc(C)c4)c3=O)C2=O)c1 [compound 66]	3890	> 10000
Cc1cn(-c2ccc3n(c2=O)C[C@@H](C)N(Cc2cc(C(F)(F)F)ccc2Cl)C3=O)cn1 [compound 71]	280	> 10000
Cc1cn(-c2ccc3n(c2=O)C[C@@H](C)N(Cc2cc(C(F)(F)F)ccc2C)C3=O)cn1 [compound 72]	190	> 10000
CCOCc1cc(CN2C(=O)c3ccc(-n4cnc(C)c4)c(=O)n3C[C@H]2C)cc(C(F)(F)F)c1 [compound 76]	190	> 10000
COc1cc(C)c(CN2C(=O)c3ccc(-n4cnc(C)c4)c(=O)n3C[C@H]2C)cc1C(C)C [compound 77]	190	> 10000
Cc1cn(-c2ccc3n(c2=O)C[C@@H](C)N(Cc2cccc(-n4nc(C)cc4C)c2)C3=O)cn1 [compound 83]	1350	> 10000
Cc1cn(-c2ccc3n(c2=O)C[C@@H](C)N(Cc2ccc(Cl)c(N4CCCCC4)c2)C3=O)cn1 [compound 85]	60	> 10000
Cc1cn(-c2ccc3n(c2=O)CCN(Cc2cccc(-c4ccccc4)c2)C3=O)c(C)n1 [compound 87]	7760	> 10000
Cc1ccc2cc(CN3CCn4c(ccc(-n5cnc(C)c5)c4=O)C3=O)ccc2c1 [compound 94]	490	> 10000
Cc1cn(-c2ccc3n(c2=O)CCN(Cc2nccc(OCC(F)(F)F)c2C)C3=O)cn1 [compound 98]	2880	> 10000
Cc1nccn1-c1ccc2n(c1=O)CCN(Cc1cccc(-c3ccccc3)c1)C2=O [compound 108]	4790	> 10000

More lines, now with the values ahead:

IC50 (γ-secretase [1]) [nM]	IC50 (γ-secretase [2]) [nM]	SMILES
240	6460	Cc1cn(-c2ccc3n(c2=O)CC(C)N(C(C)c2cn(C)c4ccc(C(F)(F)F)cc24)C3=O)cn1 (single isomer, unassigned) [compound 214]
10	1440	Cc1cn(-c2ccc3n(c2=O)CC(C)N(C(C)c2cn(C)c4ccc(C(F)(F)F)cc24)C3=O)cn1 (single isomer, unassigned) [compound 215]
120	6460	CCn1cc(C(C)N2C(=O)c3ccc(-n4cnc(C)c4)c(=O)n3CC2C)c2cc(C(F)(F)F)ccc21 (single isomer, unassigned) [compound 216]
140	3800	Cc1cn(-c2ccc3n(c2=O)CC(C)N(C(C)c2c[nH]c4c(F)cc(Cl)cc24)C3=O)cn1 (single isomer, unassigned) [compound 218]
8	1000	Cc1cn(-c2ccc3n(c2=O)C[C@@H](C)N(C(C)c2cn(C4CC4)c4cc(F)c(Cl)cc24)C3=O)cn1 (single isomer, unassigned) [compound 248]
930	> 10000	CCc1cn(-c2ccc3n(c2=O)CC(CN(C)C)N(Cc2cc(C(F)(F)F)cc(C(F)(F)F)c2)C3=O)cn1 (stereo not drawn) [compound 8]
> 10000	> 10000	CCCc1nccn1-c1ccc2n(c1=O)CCN(CC1CC1)C2=O [compound 17]
6760	> 10000	Cc1cn(-c2ccc3n(c2=O)CCN(Cc2ccccc2)C3=O)cn1 [compound 19]
1100	> 10000	Cc1cn(-c2ccc3n(c2=O)C[C@@H](C)N(Cc2cccc(Cl)c2)C3=O)cn1 [compound 24]
> 10000	> 10000	Cc1cn(-c2ccc3n(c2=O)CCN(c2ccc(F)cc2C)C3=O)cn1 [compound 41]
540	> 10000	Cc1cn(-c2ccc3n(c2=O)C[C@@H](CO)N(Cc2cc(C(F)(F)F)cc(C(F)(F)F)c2)C3=O)cn1 [compound 45]
3390	> 10000	CNC[C@@H]1Cn2c(ccc(-n3cnc(C)c3)c2=O)C(=O)N1Cc1cc(C(F)(F)F)cc(C(F)(F)F)c1 [compound 49]
480	> 10000	Cc1cn(-c2ccc3n(c2=O)C[C@@H](C)N(Cc2cccc(C(F)(F)F)c2C)C3=O)cn1 [compound 61]
280	> 10000	Cc1cn(-c2ccc3n(c2=O)C[C@@H](C)N(Cc2cccc(OC(F)(F)F)c2)C3=O)cn1 [compound 79]
220	> 10000	Cc1cn(-c2ccc3n(c2=O)C[C@@H](C)N(Cc2cc(N4CCC(C(F)(F)F)CC4)ccc2Cl)C3=O)cn1 [compound 81]
30	> 10000	Cc1cn(-c2ccc3n(c2=O)C[C@@H](C)N(Cc2cc(N4CCCCC4)cc(C(F)(F)F)c2)C3=O)cn1 [compound 86]
> 10000	> 10000	Cc1cn(-c2ccc3n(c2=O)CCN(CCc2c[nH]c4ccccc24)C3=O)cn1 [compound 104]
